{"source": "patent US9625466B2", "about": "“Signal amplification methods for the imaging of protein synthesis and neurotransmitter transport” (CORNELL UNIVERSITY, priority 2011, dated 2017)", "key": {"ternary complex [1]": {"molecular_target": "T1, ternary complex (Escherichia coli, UniProt P0CE48)", "T1 construct": "6-His tag followed by TEV protease site (N); made in house; host or cells: E. coli (bacterial expression vector pPROEX-Ht-b)", "assay": "Equilibrium titration of nucleotide into Cy3-labeled Phe-tRNAPhe with saturating EF-Tu", "format": "binding, E. coli", "conditions": "for RF Increase (%): Cy3 relative fluorescence increase at saturation, nucleotide titrated", "text": "Initial experiments focused on the molecular determinants of ternary complex formation in vitro using E. coli EF-Tu and tRNA^Phe. […] Depending on the solution conditions of the experiment, the formation of ternary complex can be detected as either a rise or fall in fluorescence intensity depending strongly on the solution conditions of the Cy3 fluorophore linked to tRNA^Phe. Other tRNA species (e.g., Cy3-labeled tRNA^Lys) undergo similar changes in fluorescence intensity.\nFluorescence experiments were performed using a Photon Technology International fluorescence meter with a 550 nm high pass filter on the emission side. All samples were analyzed in a 3 mL quartz cuvette, with a stir bar, maintained at 23° C. […] Fluorescence intensity was measured by exciting Cy3 labeled tRNA^Phe with 532 nm light and recording emission intensities at 565 nm. The sample was allowed to mix for 1 minute after each subsequent addition of reagent before data acquisition.\n[formula] (Abrahamson 1985). Values of Kd were obtained by performing a nonlinear least squares fit of the data from fluorescence experiments to equation 5 in Matlab (R2011a). The best-fit values are reported with asymptotic 95% confidence intervals.\nTo assess the affinity and nature of GTP's interactions with ternary complex, analogous titration experiments were carried out in which GTP was added to a solution of 5 nM Phe-tRNA^Phe (Cy3-acp3U47) in the presence of saturating concentrations of EF-Tu (40 times IQ). […] The non-hydrolysable analogs each saturated at a relative fluorescence value well below 30%, illustrating EF-Tu's sensitivity to the position of the gamma phosphate."}, "EF-Tu": {"molecular_target": "EF-Tu (Escherichia coli, UniProt P0CE47)", "conditions": "cited from earlier work"}, "ternary complex [2]": {"molecular_target": "T1, ternary complex", "assay": "Functional drug assay: dissociation of pre-formed fluorescent ternary complex", "format": "biochemical, E. coli", "conditions": "for kapp,2 apparent rate of ternary complex dissociation: compound added to pre-formed ternary complex (400 nM EF-Tu/EF-Ts, 5 nM Cy3 Phe-tRNAPhe, 10 μM GTP), GDP 100 μM", "procedure": "After ternary complex was formed, drug was added to a final concentration of 1 μM. Decay curves were fit using non-linear least squares method as previously mentioned.\nTo test this hypothesis, ternary complex was formed at low, saturating concentrations of GTP (10 μM). […] To the formed complex, 100 μM GDP was then added and the rate of ternary complex dissociation was followed as a function of time.\nTo illustrate the dynamic equilibrium that exists between ternary complex and its constituents, EF-Tu-targeting drugs were delivered to pre-formed ternary complex in the same manner as GDP described above."}, "Phe-tRNA^Phe [3]": {"test_system": "Phe-tRNA^Phe", "conditions": "for RF Increase (%): Cy3 relative fluorescence increase on ternary complex formation, EF-Tu titrated"}, "Phe-tRNA^Phe [4]": {"test_system": "Phe-tRNA^Phe", "conditions": "4° C., pH 7.4; cited from earlier work"}, "Phe-tRNA^Phe [5]": {"test_system": "Phe-tRNA^Phe"}, "[6]": {"conditions": "5 nM Phe-tRNAPhe (Cy3-acp3U47), saturating EF-Tu (400 nM EF-Tu/EF-Ts), read-out: Kd (apparent affinity of nucleotide for ternary complex)"}}, "note": "“And” between values parts separate entries of the source, which are not always exact repeats. Identical values can stand only once. Like-named read-outs stand apart in the source and are kept apart here. Marks after values point to notes of the source that are not given here.", "data": [{"molecule": "Nc1nc2c(ncn2[C@@H]2O[C@H](COP(=O)(O)OP(=O)(O)NP(=O)(O)O)[C@@H](O)[C@H]2O)c(=O)[nH]1", "note": "[GDPNP, guanylyl-imino-diphosphate]", "values": [{"measurement": "Kd", "setting": "ternary complex [1]; [6]", "value": 9270, "unit": "nM"}, {"measurement": "RF Increase (%)", "setting": "ternary complex [1]", "value": 7.3, "unit": "%"}]}, {"molecule": "Nc1nc2c(ncn2[C@@H]2O[C@H](COP(=O)(O)OP(=O)(O)O)[C@@H](O)[C@H]2O)c(=O)[nH]1", "note": "[GDP]", "values": [{"measurement": "affinity for GDP relative to GTP", "setting": "EF-Tu; EF-Tu", "value": 40, "unit": "fold"}, {"measurement": "dissociation rate of GDP from EF-Tu•GDP•EF-Ts", "setting": "EF-Tu; Gromadski 2002", "value": 125, "unit": "s⁻¹"}, {"measurement": "kapp,2 apparent rate of ternary complex dissociation", "setting": "ternary complex [2]", "value": "0.3 s⁻¹ and 0.30 s⁻¹"}]}, {"molecule": "Nc1nc2c(ncn2[C@@H]2O[C@H](COP(=O)(O)OP(=O)(O)OP(O)(O)=S)[C@@H](O)[C@H]2O)c(=O)[nH]1", "note": "[GDPγS, guanosine 5′[γ-thio]triphosphate]", "values": [{"measurement": "Kd", "setting": "ternary complex [1]", "value": 3670, "unit": "nM"}, {"measurement": "RF Increase (%)", "setting": "ternary complex [1]", "value": 5.5, "unit": "%"}]}, {"molecule": "Nc1nc2c(ncn2[C@@H]2O[C@H](COP(=O)(O)OP(=O)(O)OP(=O)(O)O)[C@@H](O)[C@H]2O)c(=O)[nH]1", "note": "[GTP, guanosine nucleotide triphosphate]", "values": [{"measurement": "Kd", "setting": "ternary complex [1]; [6]", "value": 696, "unit": "nM"}, {"measurement": "RF Increase (%)", "setting": "ternary complex [1]", "value": 30, "unit": "%"}, {"measurement": "Kd", "setting": "ternary complex [1]; Example 2, saturating EF-Tu (~300 nM), read-out: affinity of GTP in the formation of ternary complex", "value": "~200", "unit": "nM"}, {"measurement": "kon of GTP for the complex (kon=koff/KD)", "setting": "ternary complex [1]; model, from koff 0.3 s^−1 and KD", "value": "~1e+06", "unit": "M⁻¹ s⁻¹"}]}, {"molecule": "C=C(NC(=O)C(=C)NC(=O)c1csc(C2=N[C@@H]3c4csc(n4)[C@H]4NC(=O)c5csc(n5)[C@H]([C@](C)(O)[C@@H](C)O)NC(=O)[C@H]5CSC(=N5)/C(=C/C)NC(=O)[C@H]([C@@H](C)O)NC(=O)c5csc(n5)[C@]3(CC2)NC(=O)[C@H](C)NC(=O)C(=C)NC(=O)[C@H](C)NC(=O)[C@H]([C@@H](C)CC)N[C@@H]2C=Cc3c([C@H](C)O)cc(nc3[C@H]2O)C(=O)O[C@@H]4C)n1)C(N)=O", "note": "[Thiostrepton]", "values": [{"measurement": "kapp,2 apparent rate of ternary complex dissociation", "setting": "ternary complex [2]", "value": 0, "unit": "s⁻¹"}, {"measurement": "disruption of the ternary complex", "setting": "ternary complex [2]; thiostrepton added to pre-formed ternary complex (10 μM per FIG. 17)", "value": "did not lead to disruption of the ternary complex"}]}, {"molecule": "EF-Tu (GTP): elongation factor Tu from E. coli, GTP-bound form, added as EF-Tu/EF-Ts complex", "values": [{"measurement": "RF Increase (%)", "setting": "Phe-tRNA^Phe [3]", "value": 30, "unit": "%"}, {"measurement": "RF Increase (%)", "setting": "Phe-tRNA^Phe [3]; listed as EF-Tu", "value": "approximately 30%"}, {"measurement": "Kd", "setting": "Phe-tRNA^Phe [3]; read-out: Kd (apparent dissociation constant between EF-Tu•GTP and Phe-tRNAPhe), 5 nM Phe-tRNAPhe (Cy3-acp3U47), 10 μM GTP, 23° C., ± 95% CI", "value": "12.7 ± 1.1", "unit": "nM"}, {"measurement": "Kd", "setting": "Phe-tRNA^Phe [3]; read-out: Kd (apparent dissociation constant between EF-Tu•GTP and Phe-tRNAPhe), 5 nM Phe-tRNAPhe (Cy3-acp3U47), 10 μM GTP, 23° C., ± 95% CI, listed as EF-Tu•GTP", "value": 12.6, "unit": "nM"}, {"measurement": "Kd", "setting": "Phe-tRNA^Phe [3]; read-out: Kd of EF-Tu's interaction with Phe-tRNAPhe, Example 2, saturating GTP (>10 μM)", "value": "≤ 15", "unit": "nM"}, {"measurement": "rate of association determined previously", "setting": "Phe-tRNA^Phe [4]", "value": 1.5, "unit": "µM⁻¹ s⁻¹"}, {"measurement": "association constant kon", "setting": "Phe-tRNA^Phe [5]; EF-Tu and GTP (10 μM) added to 5 nM Cy3-labeled Phe-tRNAPhe", "value": 1.4, "unit": "µM⁻¹ s⁻¹"}, {"measurement": "dissociation rate koff", "setting": "Phe-tRNA^Phe [5]; fit of triplicate time course to equation 7", "value": 0.08, "unit": "s⁻¹"}]}, {"molecule": "Kirromycin", "values": [{"measurement": "reduction of relative fluorescence", "setting": "ternary complex [2]; 1 μM added to pre-formed ternary complex", "value": "~20", "unit": "%"}, {"measurement": "kapp,2 rate of GDP mediated dissociation in the presence of kirromycin", "setting": "ternary complex [2]; 1 μM kirromycin, then GDP", "value": "0.02* s^−1"}, {"measurement": "dissociation of ternary complex by saturating GDP with kirromycin present", "setting": "ternary complex [2]; 1 μM kirromycin, then saturating GDP", "value": "did not dissociate ternary complex in the time frame observed"}]}]}
